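Dose response: 5 concentrations. Exposure: 48 h. Format: 96-well plates. Endpoint: linear interpolation; highest concentration if not reached. GI50: concentration for 50% inhibition of growth. TGI is the concentration that stops growth completely.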

GI50 and TGI data for nine compounds are collected here from PubChem BioAssay (NCI).

Among the test systems are MOLT-4 leukemia; HOP-62 NSCLC; HCT-116 colon; OVCAR-8 ovarian; SF-268 CNS; SK-MEL-5 melanoma; U251 CNS; HOP-92 NSCLC; HCT-15 colon; HCC-2998 colon.
Holding throughout (experiment): DTP human tumour cell line panel, 48 h

By GI50 is commonly meant the concentration that inhibits growth by half. By TGI is commonly meant the concentration at which net growth stops. As to `O=C(Nc1ccc(-n2cc(-c3ccncc3)c(-c3ccc(Cl)c(O)c3)n2)cc1)c1ccc(Cl)c(Cl)c1`, the GI50 with MOLT-4 leukemia is 4.02 µM; with HOP-62 NSCLC, 0.711 µM; in the experiment with HCT-116 colon, 2.89 µM; in the experiment on OVCAR-8 ovarian, 4.68 µM; with SF-268 CNS, greater than 100 µM; in the experiment on SK-MEL-5 melanoma it was 1.15 µM. Besides, the GI50 with U251 CNS was 2.65 µM; with HOP-92 NSCLC it was 8.97 µM; in the experiment on HCT-15 colon it was 1.12 µM; with HCC-2998 colon, 3.43 µM. Also, the TGI with MOLT-4 leukemia is greater than 100 µM; with HOP-62 NSCLC, 2.65 µM; with HCT-116 colon, greater than 100 µM; with OVCAR-8 ovarian, greater than 100 µM; in the experiment with SF-268 CNS it was greater than 100 µM; in the experiment on SK-MEL-5 melanoma, 2.43 µM. Also, the TGI with U251 CNS was greater than 100 µM; in the experiment on HOP-92 NSCLC, greater than 100 µM; with HCT-15 colon, greater than 100 µM; with HCC-2998 colon, 19.7 µM.
For `Nc1nc2c([nH]1)c1[nH]c3ccccc3c1c1[nH]c3ccccc3c21`, the GI50 in the experiment on MOLT-4 leukemia was 1.89 µM; in the experiment on HOP-62 NSCLC it was 13.8 µM; with HCT-116 colon it was 5.24 µM; in the experiment on OVCAR-8 ovarian it was 4.56 µM; in the experiment on SF-268 CNS it was 16.2 µM; in the experiment on SK-MEL-5 melanoma, 14 µM. Also, the GI50 was 3.99 µM in the experiment with U251 CNS, 9.12 µM in the experiment on HOP-92 NSCLC, 13.6 µM in the experiment on HCT-15 colon and 2.26 µM in the experiment on HCC-2998 colon. Besides, the TGI was determined as 6.16 µM in the experiment on MOLT-4 leukemia; 27.3 µM with HOP-62 NSCLC; 18 µM with HCT-116 colon; 23.7 µM in the experiment on OVCAR-8 ovarian; 32.6 µM in the experiment with SF-268 CNS; 27 µM in the experiment with SK-MEL-5 melanoma. In addition, the TGI in the experiment with U251 CNS worked out at 14.3 µM; in the experiment on HOP-92 NSCLC it was 22.2 µM; in the experiment on HCT-15 colon, 31.4 µM; in the experiment with HCC-2998 colon, 5.75 µM.
With `COc1cc(COC(=O)N(C)[C@@H](Cc2ccccc2)C(=O)O)c([N+](=O)[O-])cc1OC`, the TGI with MOLT-4 leukemia, in the experiment with HOP-62 NSCLC, in the experiment on HCT-116 colon, with OVCAR-8 ovarian, in the experiment on SF-268 CNS and in the experiment on SK-MEL-5 melanoma was greater than 100 µM throughout. Also, the TGI with U251 CNS, in the experiment on HOP-92 NSCLC, with HCT-15 colon and with HCC-2998 colon was greater than 100 µM in each case.
For the compound `COc1ccc(-c2nc3sccn3c2/C=C/C(=O)c2cc(OC)c(OC)c(OC)c2)cc1`, the GI50 was 2.24 µM with MOLT-4 leukemia; 2.53 µM in the experiment with HOP-62 NSCLC; 2.19 µM with HCT-116 colon; 3.03 µM with OVCAR-8 ovarian; 2.76 µM with SF-268 CNS; 1.42 µM in the experiment on SK-MEL-5 melanoma. In addition, the GI50 was 3.04 µM in the experiment with U251 CNS, 0.4 µM in the experiment with HOP-92 NSCLC, 3.33 µM in the experiment on HCT-15 colon and 3.03 µM in the experiment on HCC-2998 colon. In addition, the TGI in the experiment with MOLT-4 leukemia is 23.7 µM; in the experiment with HOP-62 NSCLC, greater than 25.7 µM; with HCT-116 colon, 12.6 µM; in the experiment with OVCAR-8 ovarian, greater than 21.8 µM; in the experiment on SF-268 CNS, greater than 100 µM; in the experiment with SK-MEL-5 melanoma, 2.98 µM. The TGI was greater than 100 µM in the experiment with U251 CNS, 4.59 µM in the experiment on HOP-92 NSCLC, greater than 83 µM with HCT-15 colon and 14.4 µM with HCC-2998 colon.
In the case of `CCCCCCC1CCCCN1C(c1ccccc1)C(O)c1ccccc1` (stereo not given), the GI50 with MOLT-4 leukemia was 4.96 µM; with HOP-62 NSCLC, 10.3 µM; with HCT-116 colon it was 3.11 µM; in the experiment with OVCAR-8 ovarian it was 14.8 µM; in the experiment on SF-268 CNS, 10.9 µM; in the experiment on SK-MEL-5 melanoma, 2.48 µM. Moreover, the GI50 in the experiment on U251 CNS is 5.98 µM; in the experiment with HOP-92 NSCLC, 2.84 µM; in the experiment on HCT-15 colon it was 5.39 µM; in the experiment with HCC-2998 colon it was 3.65 µM. Besides, the TGI came to 19.4 µM in the experiment with MOLT-4 leukemia; 22.5 µM in the experiment on HOP-62 NSCLC; 11.7 µM in the experiment on HCT-116 colon; 31.5 µM with OVCAR-8 ovarian; 23.1 µM with SF-268 CNS; 5.88 µM with SK-MEL-5 melanoma. In addition, the TGI with U251 CNS was determined as 18.9 µM; in the experiment with HOP-92 NSCLC, 9.05 µM; in the experiment on HCT-15 colon it was 18.1 µM; with HCC-2998 colon, 10.4 µM.
In the case of `OCCN1CCCN(CCCN2c3ccccc3Sc3ccc(C(F)(F)F)cc32)CC1`, the GI50 in the experiment on MOLT-4 leukemia is 2.39 µM; with HOP-62 NSCLC, 2.25 µM; in the experiment with HCT-116 colon, 2.1 µM; in the experiment with OVCAR-8 ovarian, 3.46 µM; with SF-268 CNS it was 3.6 µM; in the experiment with SK-MEL-5 melanoma, 1.67 µM. The GI50 is 2.04 µM in the experiment with U251 CNS, 1.73 µM in the experiment on HOP-92 NSCLC, 2.74 µM with HCT-15 colon and 1.81 µM in the experiment with HCC-2998 colon. Besides, the TGI with MOLT-4 leukemia turned out to be 5.2 µM; in the experiment on HOP-62 NSCLC it was 5.05 µM; with HCT-116 colon, 4.49 µM; with OVCAR-8 ovarian it was 12.2 µM; with SF-268 CNS, 15.5 µM; with SK-MEL-5 melanoma, 3.09 µM. The TGI in the experiment with U251 CNS turned out to be 4.32 µM; in the experiment on HOP-92 NSCLC, 7.63 µM; in the experiment on HCT-15 colon, 10.3 µM; in the experiment with HCC-2998 colon, 3.33 µM.
With `Clc1cc(Cl)cc(Nc2ccc3c(OCCCN4CCOCC4)cccc3n2)c1`, the GI50 is 2.25 µM in the experiment on MOLT-4 leukemia; 2.29 µM with HOP-62 NSCLC; 1.82 µM in the experiment on HCT-116 colon; 3.54 µM in the experiment on OVCAR-8 ovarian; 3 µM in the experiment on SF-268 CNS; 10.1 µM with SK-MEL-5 melanoma. The GI50 in the experiment on U251 CNS is 1.98 µM; in the experiment on HOP-92 NSCLC it was 2.03 µM; in the experiment on HCT-15 colon, 1.75 µM; in the experiment on HCC-2998 colon, 1.82 µM. For the same compound, the TGI in the experiment on MOLT-4 leukemia was determined as 5.61 µM; with HOP-62 NSCLC, 7.03 µM; with HCT-116 colon, 3.56 µM; with OVCAR-8 ovarian, 13.3 µM; with SF-268 CNS it was 9.63 µM; with SK-MEL-5 melanoma, 23.2 µM. For the same compound, the TGI was determined as 3.95 µM in the experiment on U251 CNS, 6.94 µM in the experiment with HOP-92 NSCLC, 3.52 µM in the experiment with HCT-15 colon and 3.51 µM in the experiment with HCC-2998 colon.
For the compound `C=C1CCC2C(C)(CO)C(O)CCC2(C)C1C/C=C1\C(=O)OCC1O` (stereo not given), the TGI with MOLT-4 leukemia was greater than 100 µM; with HOP-62 NSCLC it was 54.4 µM; in the experiment with HCT-116 colon, 28.9 µM; with OVCAR-8 ovarian, 22.6 µM; with SF-268 CNS it was greater than 100 µM; in the experiment on SK-MEL-5 melanoma it was 27.8 µM. Also, the TGI with U251 CNS was found to be 23.1 µM; in the experiment on HOP-92 NSCLC, 66.1 µM; in the experiment with HCT-15 colon, 39.5 µM; in the experiment on HCC-2998 colon, 50.6 µM.
On to `Fc1nc(Sc2ncnc3nc[nH]c23)nc(-c2c3ccccc3c3sc4ccccc4n23)n1`, for which the TGI in the experiment on MOLT-4 leukemia, with HOP-62 NSCLC, with HCT-116 colon, with OVCAR-8 ovarian, in the experiment on SF-268 CNS and in the experiment with SK-MEL-5 melanoma was greater than 100 µM each time. Besides, the TGI with U251 CNS, in the experiment on HOP-92 NSCLC, in the experiment on HCT-15 colon and in the experiment on HCC-2998 colon was greater than 100 µM each time.
